Read-outs that look alike come from different tables or passages of the source. Values belong to the molecule of their own block, whether it stands above or below them.
Experiments:
[1] = test system: CFA-induced mechanical allodynia; experiment: Complete Freund's Adjuvant (CFA) induced mechanical allodynia, Von Frey test; type: in vivo
Procedure: Animals arrived and were acclimatized for 1-2 weeks in a temperature-controlled room with a 12 h light/dark cycle and allowed free access to standard laboratory chow and water.
CFA (Sigma) was injected intra-plantar (75 µg/150 µL) from a concentration of 1:1 (diluted 1 mg/ mL of CFA in 1 mL ofPBS). CFA-induced mechanical allodynia was quantified by a Von frey test on day 2 (48 h post injection of CFA) and animals were randomized based on iPWT response (Dixon 1980). […] Animals were administered a compound of Formula (I) through appropriate route based on their pharmacokinetic properties. Responses were measured with a Von-Frey filament. The maximum possible effect (% MPE) was determined as 100% if sensitivity in ipsilateral paw neared that of the contralateral paw. Values from the vehicle-treated animals were considered 0%. The compound effect was determined based on these values.

Rats = experiment: Sciatic nerve ligation (SNL) model of neuropathic pain, L5/L6 spinal nerve ligation, von Frey filaments; type: in vivo; conditions: response at Tmax
Source text: Left L5 and L6 spinal nerves are isolated adjacent to the vertebral column and were ligated with 5-0 silk suture distal to the dorsal root ganglion, as described by Kim and Chung (1992). The incision was closed with the help of GLUture topical tissue adhesive. At 14 days post-surgery (one day prior to test compound administration), mechanical allodynia was quantified using eight von Frey filaments, calibrated in the range 0.4-15.1 g (Nielsen et al 2005). Rats were placed into individual plastic containers on top of a suspended wire mesh grid and acclimated to the test chambers for at least 15 min. Filaments were applied perpendicular to the mid-plantar paw surface, with enough force to cause slight buckling, and held in place for 6-8 sec until a response was noted as a sharp paw withdrawal, flinching, licking and/or biting immediately upon removal of the filament (Nielsen et al 2005). […] Test compounds of Formula (I) were administered and a response was measured at Tmax. The maximum possible effect (% MPE) was determined to be 100% if the sensitivity in the ipsilateral paw neared that of the contralateral paw. Values from vehicle-treated animals were considered 0 %. The compound effect was determined based on these values.

human N-type Ca channel [2] = target: T1, human N-type Ca channel (Homo sapiens, UniProt Q00975); experiment: Calcium influx assay (FDSS), KCl depolarization, Fluo8 dye; type: cell-based; design: host or cells: HEK 293
Outline: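 HEK293 cells stably expressing the human N-type Ca channel were loaded with Fluo8 and washed in choline-based buffer (pH 7.2, 2 mM CaCl2, 2 mM KCl). Cells were preincubated with serially diluted compound for 15 min in the dark. Ca influx was then recorded by fluorescence after depolarization with 100 mM KCl.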

human N-type Ca channel [3] = target: T1, human N-type Ca channel; experiment: Electrophysiological response, QPatch (depolarization -80 mV to +20 mV)
[4] = HEK 293 cells expressing human N-type Ca channel, 100 mM KCl, read-out: N Type IC50 Data FDSS
[5] = N Type IC50 Data Qpatch Pulse=1, Pulse=1, concentration range 0.01-1 µM
[6] = N Type IC50 Data Qpatch Pulse=15, Pulse=15, concentration range 0.01-1 µM
[7] = N Type IC50 Data Qpatch Pulse=1, Pulse=1, concentration range 0.3-10 µM
[8] = N Type IC50 Data Qpatch Pulse=15, Pulse=15, concentration range 0.3-10 µM
[9] = read-out: Qpatch Pulse=1 (percent inhibition)
[10] = read-out: Qpatch Pulse=15 (percent inhibition)

T1 sequence (Q00975 whole entry): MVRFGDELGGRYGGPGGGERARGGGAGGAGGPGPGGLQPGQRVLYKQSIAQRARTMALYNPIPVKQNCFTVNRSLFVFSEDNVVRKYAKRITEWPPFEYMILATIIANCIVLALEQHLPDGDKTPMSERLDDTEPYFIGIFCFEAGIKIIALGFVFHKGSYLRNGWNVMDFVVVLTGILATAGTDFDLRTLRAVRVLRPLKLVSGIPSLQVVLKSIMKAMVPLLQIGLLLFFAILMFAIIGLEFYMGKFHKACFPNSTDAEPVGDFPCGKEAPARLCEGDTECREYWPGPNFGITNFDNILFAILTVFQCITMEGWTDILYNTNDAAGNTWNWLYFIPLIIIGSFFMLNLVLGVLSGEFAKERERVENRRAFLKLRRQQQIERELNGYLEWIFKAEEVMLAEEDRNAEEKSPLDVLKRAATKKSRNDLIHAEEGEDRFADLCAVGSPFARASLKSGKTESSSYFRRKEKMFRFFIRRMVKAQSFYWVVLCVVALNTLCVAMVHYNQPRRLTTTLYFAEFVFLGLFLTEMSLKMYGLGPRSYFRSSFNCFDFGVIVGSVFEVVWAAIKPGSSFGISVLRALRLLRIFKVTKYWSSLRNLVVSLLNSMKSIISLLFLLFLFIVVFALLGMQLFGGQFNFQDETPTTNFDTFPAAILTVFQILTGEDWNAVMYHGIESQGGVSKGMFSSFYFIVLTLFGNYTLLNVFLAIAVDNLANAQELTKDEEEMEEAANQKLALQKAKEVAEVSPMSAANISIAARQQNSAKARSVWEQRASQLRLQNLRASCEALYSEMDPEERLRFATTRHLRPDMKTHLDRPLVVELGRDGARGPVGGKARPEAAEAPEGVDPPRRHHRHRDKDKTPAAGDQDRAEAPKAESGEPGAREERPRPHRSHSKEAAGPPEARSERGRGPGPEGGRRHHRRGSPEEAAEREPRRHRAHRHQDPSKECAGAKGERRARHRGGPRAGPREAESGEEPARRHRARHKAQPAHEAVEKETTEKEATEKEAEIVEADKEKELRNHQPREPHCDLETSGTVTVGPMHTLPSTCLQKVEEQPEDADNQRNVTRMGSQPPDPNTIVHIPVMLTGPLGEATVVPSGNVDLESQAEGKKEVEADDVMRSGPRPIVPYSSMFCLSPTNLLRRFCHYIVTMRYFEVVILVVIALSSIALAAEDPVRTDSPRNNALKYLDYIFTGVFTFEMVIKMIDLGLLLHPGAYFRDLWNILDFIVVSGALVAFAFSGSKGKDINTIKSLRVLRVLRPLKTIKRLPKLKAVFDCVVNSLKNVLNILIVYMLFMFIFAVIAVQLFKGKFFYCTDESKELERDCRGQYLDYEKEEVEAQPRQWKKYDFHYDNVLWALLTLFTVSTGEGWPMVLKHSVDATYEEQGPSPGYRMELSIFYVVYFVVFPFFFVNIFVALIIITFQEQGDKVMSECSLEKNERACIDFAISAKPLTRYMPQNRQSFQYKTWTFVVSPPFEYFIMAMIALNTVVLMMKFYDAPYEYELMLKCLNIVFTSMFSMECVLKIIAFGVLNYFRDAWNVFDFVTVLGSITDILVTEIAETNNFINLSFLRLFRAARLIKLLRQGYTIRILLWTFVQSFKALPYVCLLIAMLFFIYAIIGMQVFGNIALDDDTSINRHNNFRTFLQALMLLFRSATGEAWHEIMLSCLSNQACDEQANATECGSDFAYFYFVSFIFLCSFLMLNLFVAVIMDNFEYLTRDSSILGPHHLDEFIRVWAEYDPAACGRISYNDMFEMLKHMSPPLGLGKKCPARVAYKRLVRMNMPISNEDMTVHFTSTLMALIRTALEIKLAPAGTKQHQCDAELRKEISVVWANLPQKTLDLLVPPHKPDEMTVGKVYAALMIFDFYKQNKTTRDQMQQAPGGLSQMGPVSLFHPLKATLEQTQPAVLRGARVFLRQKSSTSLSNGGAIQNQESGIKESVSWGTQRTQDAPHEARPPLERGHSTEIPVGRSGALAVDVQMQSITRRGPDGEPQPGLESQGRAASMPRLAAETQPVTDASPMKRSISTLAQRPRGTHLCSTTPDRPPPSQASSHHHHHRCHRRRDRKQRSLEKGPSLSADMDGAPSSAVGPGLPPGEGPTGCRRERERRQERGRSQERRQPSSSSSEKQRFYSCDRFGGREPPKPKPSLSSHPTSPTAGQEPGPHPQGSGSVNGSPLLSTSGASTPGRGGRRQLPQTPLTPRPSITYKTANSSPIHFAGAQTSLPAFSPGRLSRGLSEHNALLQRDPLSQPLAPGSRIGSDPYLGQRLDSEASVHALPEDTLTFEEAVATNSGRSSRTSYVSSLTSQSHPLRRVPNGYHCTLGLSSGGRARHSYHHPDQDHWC
T1 sequence (P54284 whole entry partner): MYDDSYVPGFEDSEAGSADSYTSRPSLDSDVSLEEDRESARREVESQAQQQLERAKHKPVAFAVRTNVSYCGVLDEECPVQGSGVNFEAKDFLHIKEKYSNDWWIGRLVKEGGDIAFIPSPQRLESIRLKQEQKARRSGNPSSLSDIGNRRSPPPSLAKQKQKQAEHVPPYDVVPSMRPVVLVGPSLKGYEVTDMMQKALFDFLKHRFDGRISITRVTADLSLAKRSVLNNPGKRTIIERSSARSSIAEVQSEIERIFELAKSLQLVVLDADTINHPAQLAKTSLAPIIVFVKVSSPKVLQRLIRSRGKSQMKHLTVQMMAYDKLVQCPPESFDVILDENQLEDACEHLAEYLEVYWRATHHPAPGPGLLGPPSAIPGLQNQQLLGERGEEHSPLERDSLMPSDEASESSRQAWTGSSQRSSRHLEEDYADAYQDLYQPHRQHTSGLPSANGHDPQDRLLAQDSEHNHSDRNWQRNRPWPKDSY
T1 sequence (P54289 25-956 partner limits assumed): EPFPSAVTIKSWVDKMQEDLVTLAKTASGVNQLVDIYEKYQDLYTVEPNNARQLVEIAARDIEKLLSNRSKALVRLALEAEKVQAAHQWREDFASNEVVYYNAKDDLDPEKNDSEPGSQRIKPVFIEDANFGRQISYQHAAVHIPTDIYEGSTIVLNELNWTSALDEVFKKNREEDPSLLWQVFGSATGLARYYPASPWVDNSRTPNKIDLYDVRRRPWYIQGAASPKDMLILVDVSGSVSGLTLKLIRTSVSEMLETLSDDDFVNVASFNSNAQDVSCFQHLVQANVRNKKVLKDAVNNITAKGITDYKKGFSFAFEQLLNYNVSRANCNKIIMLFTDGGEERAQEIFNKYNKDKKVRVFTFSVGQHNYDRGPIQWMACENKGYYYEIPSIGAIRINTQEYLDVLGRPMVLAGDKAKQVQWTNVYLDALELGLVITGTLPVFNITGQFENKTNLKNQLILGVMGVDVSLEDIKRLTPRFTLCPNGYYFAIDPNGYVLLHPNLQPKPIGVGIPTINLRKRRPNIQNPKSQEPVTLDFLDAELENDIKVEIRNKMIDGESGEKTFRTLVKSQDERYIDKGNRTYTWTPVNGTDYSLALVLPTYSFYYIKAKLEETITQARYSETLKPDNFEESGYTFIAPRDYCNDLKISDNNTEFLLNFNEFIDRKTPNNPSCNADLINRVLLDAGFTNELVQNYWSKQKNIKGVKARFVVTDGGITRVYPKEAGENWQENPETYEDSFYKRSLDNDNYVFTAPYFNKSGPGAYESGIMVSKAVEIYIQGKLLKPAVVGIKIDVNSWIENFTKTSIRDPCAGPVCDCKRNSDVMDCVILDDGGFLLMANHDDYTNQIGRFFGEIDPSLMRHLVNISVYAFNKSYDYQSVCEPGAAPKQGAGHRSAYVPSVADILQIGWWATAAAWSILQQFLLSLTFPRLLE
T1 sequence (P54289 957-1103 partner limits assumed): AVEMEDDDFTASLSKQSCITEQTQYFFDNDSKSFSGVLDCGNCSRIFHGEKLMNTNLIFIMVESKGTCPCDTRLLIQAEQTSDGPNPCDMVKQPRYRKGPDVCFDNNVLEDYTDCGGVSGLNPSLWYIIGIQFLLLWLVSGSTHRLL

Structure (SMILES): COc1ncccc1-c1nc(C2CC(C)(C)OC(C)(C)C2)cn1-c1ccc(F)cc1 [Compound 10, 3-(1-(4-fluorophenyl)-4-(2,2,6,6-tetramethyltetrahydro-2H-pyran-4-yl)-1H-imidazol-2-yl)-2-methoxypyridine]
SNL(%MPE) (Rats; Dose 3 mg/kg): 12.17±11.24%
SNL(%MPE) (Rats; Dose 10 mg/kg): 40.53±13.64%
SNL(%MPE) (Rats; Dose 30 mg/kg): 54.59±13.37%
SNL(%MPE) (Rats; Dose 100 mg/kg): 85.45±8.44%
IC50 (human N-type Ca channel [2]; [4]): 401 nM
IC50 (human N-type Ca channel [3]; [7]): 5920 nM
IC50 (human N-type Ca channel [3]; [8]): 1470 nM

Structure (SMILES): COc1ncccc1-c1nc(C2CC(C)(C)OC(C)(C)C2)cn1-c1ccc(Cl)cc1 [Compound 11, 3-(1-(4-chlorophenyl)-4-(2,2,6,6-tetramethyltetrahydro-2H-pyran-4-yl)-1H-imidazol-2-yl)-2-methoxypyridine]
CFA (% Reversal) ([1]; Dose 3 mg/kg): 20.97±7.88%
CFA (% Reversal) ([1]; Dose 10 mg/kg): 41.12±5.14%
CFA (% Reversal) ([1]; Dose 30 mg/kg): 55.8±11.32%
CFA (% Reversal) ([1]; Dose 60 mg/kg): 76.4±3.78%
SNL(%MPE) (Rats; Dose 3 mg/kg): 28.29± 10.84%
SNL(%MPE) (Rats; Dose 10 mg/kg): 49.01±9.93%
SNL(%MPE) (Rats; Dose 30 mg/kg): 70.69±10.3%
SNL(%MPE) (Rats; Dose 60 mg/kg): 96.18±3.22%
IC50 (human N-type Ca channel [2]): 82 nM
inhibition at 10 µM (human N-type Ca channel [3]; [9]): 63%
inhibition at 10 µM (human N-type Ca channel [3]; [10]): 21%

Structure (SMILES): COc1ccccc1-c1nc(C2(O)CC(C)(C)OC(C)(C)C2)cn1-c1ccc(C(F)(F)F)nc1 [Compound 109, 4-(2-(2-methoxyphenyl)-1-(6-(trifluoromethyl)pyridin-3-yl)-1H-imidazol-4-yl)-2,2,6,6-tetramethyltetrahydro-2H-pyran-4-ol]
IC50 (human N-type Ca channel [2]; [4]): 322 nM
IC50 (human N-type Ca channel [3]; [7]): 4500 nM
IC50 (human N-type Ca channel [3]; [8]): 7900 nM

Structure (SMILES): COc1ncccc1-c1nc(C2(O)CC(C)(C)OC(C)(C)C2)cn1-c1ccc(F)c(Cl)c1 [Compound 110, 4-(1-(3-chloro-4-fluorophenyl)-2-(2-methoxypyridin-3-yl)-1H-imidazol-4-yl)-2,2,6,6-tetramethyltetrahydro-2H-pyran-4-ol]
IC50 (human N-type Ca channel [2]; [4]): 385 nM
inhibition at 10 µM (human N-type Ca channel [3]; [9]): 44%
inhibition at 10 µM (human N-type Ca channel [3]; [10]): 30%

Structure (SMILES): COc1ccccc1-c1nc(C2(O)CC(C)(C)OC(C)(C)C2)cn1-c1ccc(F)c(Cl)c1 [Compound 111, 4-(1-(3-chloro-4-fluorophenyl)-2-(2-methoxyphenyl)-1H-imidazol-4-yl)-2,2,6,6-tetramethyltetrahydro-2H-pyran-4-ol]
IC50 (human N-type Ca channel [2]; [4]): 257 nM
IC50 (human N-type Ca channel [3]; [8]): 2500 nM
inhibition at 10 µM (human N-type Ca channel [3]; [9]): 62%

Structure (SMILES): CCOc1ncccc1-c1nc(C2(O)CC(C)(C)OC(C)(C)C2)cn1-c1ccc(Cl)cc1 [Compound 114, 4-(1-(4-chlorophenyl)-2-(2-ethoxypyridin-3-yl)-1H-imidazol-4-yl)-2,2,6,6-tetramethyltetrahydro-2H-pyran-4-ol]
IC50 (human N-type Ca channel [2]; [4]): 607 nM
IC50 (human N-type Ca channel [3]; [5]): 668 nM
IC50 (human N-type Ca channel [3]; [6]): > 1000 nM

Structure (SMILES): COc1ccccc1-c1nc(C2(O)CC(C)(C)OC(C)(C)C2)cn1-c1ccc(F)c(C#N)c1 [Compound 117, 2-fluoro-5-(4-(4-hydroxy-2,2,6,6-tetramethyltetrahydro-2H-pyran-4-yl)-2-(2-methoxyphenyl)-1H-imidazol-1-yl)benzonitrile]
IC50 (human N-type Ca channel [2]; [4]): 1440 nM
inhibition at 10 µM (human N-type Ca channel [3]; [9]): 40%
inhibition at 10 µM (human N-type Ca channel [3]; [10]): 25%

Structure (SMILES): COc1ccccc1-c1nc(C2(O)CC(C)(C)OC(C)(C)C2)cn1-c1ccc(C#N)c(F)c1 [Compound 118, 2-fluoro-4-(4-(4-hydroxy-2,2,6,6-tetramethyltetrahydro-2H-pyran-4-yl)-2-(2-methoxyphenyl)-1H-imidazol-1-yl)benzonitrile]
IC50 (human N-type Ca channel [2]; [4]): 150 nM
IC50 (human N-type Ca channel [3]; [7]): 8100 nM

Structure (SMILES): COc1ncccc1-c1nc(C2(O)CC(C)(C)OC(C)(C)C2)cn1-c1ccc(C#N)c(F)c1 [Compound 119, 2-fluoro-4-(4-(4-hydroxy-2,2,6,6-tetramethyltetrahydro-2H-pyran-4-yl)-2-(2-methoxypyridin-3-yl)-1H-imidazol-1-yl)benzonitrile]
IC50 (human N-type Ca channel [2]; [4]): 1290 nM
inhibition at 10 µM (human N-type Ca channel [3]; [9]): 28%

Structure (SMILES): COc1ccccc1-c1nc(C2CC(C)(C)OC(C)(C)C2)cn1-c1ccc(C#N)c(Cl)c1 [Compound 123, 2-chloro-4-(2-(2-methoxyphenyl)-4-(2,2,6,6-tetramethyltetrahydro-2H-pyran-4-yl)-1H-imidazol-1-yl)benzonitrile]
IC50 (human N-type Ca channel [2]; [4]): 129 nM
IC50 (human N-type Ca channel [3]; [5]): 468 nM
IC50 (human N-type Ca channel [3]; [6]): > 1000 nM

Structure (SMILES): COc1ccccc1-c1nc(C2=CC(C)(C)OC(C)(C)C2)cn1-c1ccc(Cl)cc1 [Compound 124, 1-(4-chlorophenyl)-2-(2-methoxyphenyl)-4-(2,2,6,6-tetramethyl-3,6-dihydro-2H-pyran-4-yl)-1H-imidazole]
IC50 (human N-type Ca channel [2]; [4]): 103 nM
IC50 (human N-type Ca channel [3]; [7]): 2500 nM
IC50 (human N-type Ca channel [3]; [8]): 1600 nM

Structure (SMILES): COc1ccccc1-c1nc(C2=CC(C)(C)OC(C)(C)C2)cn1-c1ccc(Br)c(F)c1 [Compound 125, 1-(4-bromo-3-fluorophenyl)-2-(2-methoxyphenyl)-4-(2,2,6,6-tetramethyl-3,6-dihydro-2H-pyran-4-yl)-1H-imidazole]
IC50 (human N-type Ca channel [2]; [4]): 313 nM
IC50 (human N-type Ca channel [3]; [7]): 2100 nM
IC50 (human N-type Ca channel [3]; [8]): 2300 nM

The remaining molecules from weak to strong by IC50 (human N-type Ca channel [2]; [4]), led by results:

IC50 (human N-type Ca channel [2]; [4]): 3010 nM
IC50 (human N-type Ca channel [3]; read-out: N Type IC50 Data Qpatch Pulse=1, Pulse=1, concentration range 0.01-1 µM): > 1000 nM
IC50 (human N-type Ca channel [3]; read-out: N Type IC50 Data Qpatch Pulse=15, Pulse=15, concentration range 0.01-1 µM): > 1000 nM
Structure (SMILES): CC1(C)CC(c2cn(-c3ccc(Cl)cc3)c(-c3ccc[nH]c3=O)n2)CC(C)(C)O1 [Compound 122, 3-(1-(4-chlorophenyl)-4-(2,2,6,6-tetramethyltetrahydro-2H-pyran-4-yl)-1H-imidazol-2-yl)pyridin-2(1H)-one]

IC50 (human N-type Ca channel [2]; [4]): 372 nM
IC50 (human N-type Ca channel [3]; [7]): 2400 nM
IC50 (human N-type Ca channel [3]; [8]): 769 nM
Structure (SMILES): COc1ccccc1-c1nc(C2CC(C)(C)OC(C)(C)C2)cn1-c1ccc(Cl)cc1 [Compound 38, 1-(4-chlorophenyl)-2-(2-methoxyphenyl)-4-(2,2,6,6-tetramethyltetrahydro-2H-pyran-4-yl)-1H-imidazole]
SNL(%MPE) (Rats; Dose 50 mg/kg): 87.01± 9.25%

IC50 (human N-type Ca channel [2]; [4]): 108 nM
IC50 (human N-type Ca channel [3]; [7]): 1600 nM
IC50 (human N-type Ca channel [3]; [8]): 9100 nM
Structure (SMILES): COc1cnccc1-c1nc(C2(O)CC(C)(C)OC(C)(C)C2)cn1-c1ccc(Cl)cc1 [Compound 120, 4-(1-(4-chlorophenyl)-2-(3-methoxypyridin-4-yl)-1H-imidazol-4-yl)-2,2,6,6-tetramethyltetrahydro-2H-pyran-4-ol]

IC50 (human N-type Ca channel [2]; [4]): 83 nM
IC50 (human N-type Ca channel [3]; [7]): 4400 nM
IC50 (human N-type Ca channel [3]; [8]): 7800 nM
Structure (SMILES): COc1ncccc1-c1nc(C2(O)CC(C)(C)OC(C)(C)C2)cn1-c1ccc(Cl)c(F)c1 [Compound 113, 4-(1-(4-chloro-3-fluorophenyl)-2-(2-methoxypyridin-3-yl)-1H-imidazol-4-yl)-2,2,6,6-tetramethyltetrahydro-2H-pyran-4-ol]

IC50 (human N-type Ca channel [2]; [4]): 41 nM
IC50 (human N-type Ca channel [3]; [5]): 365 nM
IC50 (human N-type Ca channel [3]; [6]): > 1000 nM
Structure (SMILES): COc1ccccc1-c1nc(C2CC(C)(C)OC(C)(C)C2)cn1-c1ccc(C#N)cc1 [Compound 1, 4-[2-(2-Methoxyphenyl)-4-(2,2,6,6-tetramethyltetrahydro-2H-pyran-4-yl)-1H-imidazol-1-yl]benzonitrile]
CFA (% Reversal) ([1]; Dose 12.5 mg/kg): 19.73±8.25%
CFA (% Reversal) ([1]; Dose 25 mg/kg): 37.62±7.17%
CFA (% Reversal) ([1]; Dose 50 mg/kg): 58.8±10.22%
CFA (% Reversal) ([1]; Dose 100 mg/kg): 75.26±8.96%
SNL(%MPE) (Rats; Dose 12.5 mg/kg): 22.21±7.61%
SNL(%MPE) (Rats; Dose 25 mg/kg): 40.9±20.29%
SNL(%MPE) (Rats; Dose 100 mg/kg): 75±13.01%

IC50 (human N-type Ca channel [2]; [4]): 41 nM
IC50 (human N-type Ca channel [3]; [7]): 2500 nM
IC50 (human N-type Ca channel [3]; [8]): 3000 nM
Structure (SMILES): COc1ccccc1-c1nc(C2(O)CC(C)(C)OC(C)(C)C2)cn1-c1ccc(Cl)c(F)c1 [Compound 112, 4-(1-(4-chloro-3-fluorophenyl)-2-(2-methoxyphenyl)-1H-imidazol-4-yl)-2,2,6,6-tetramethyltetrahydro-2H-pyran-4-ol]

From patent publication EP3033337B1, “SUBSTITUTED IMIDAZOLES AS N-TYPE CALCIUM CHANNEL BLOCKERS” (Janssen Pharmaceutica NV, priority 2013, dated 2015)
